Laboratory results reported in patent US20260265246A1 (ICAHN SCHOOL OF MEDICINE AT MOUNT SINAI, priority 2021, published 2026).
Like-named read-outs stand apart in the source and are kept apart here.

Assays:
5HT2A receptor [1] = biological target: T1, 5HT2A receptor (Homo sapiens, UniProt P28223); assay: cell-based; set-up: expressed in transfected cells; host or cells: HEK293T cells, transient co-transfection; details: for Emax: HEK-293T
5HT2A receptor [2] = biological target: T1, 5HT2A receptor; assay: biochemical; format: binding; set-up: expressed in transfected cells; crude membranes; details: 5HT2A Ki (nM)
[3] = 5HTA Gq EC50 (nM), BRET2 Gαq dissociation, HEK293T
[4] = BRET2 Gαq dissociation, HEK293T, normalized to 5-HT, read-out: 5HTA Gq Emax (%)
[5] = secondary binding assay, Cheng-Prusoff
[6] = 5HT2A Gq EC50 (nM), BRET2 Gαq dissociation, HEK293T cells
[7] = BRET2 Gαq dissociation, HEK293T cells, normalized to 5-HT, read-out: 5HT2A Gq Emax (%)
[8] = secondary radioligand binding, Ki from IC50 by Cheng-Prusoff
[9] = read-out: 5HTA Gq Emax (%), BRET2 Gαq dissociation, HEK293T, normalized to 5-HT

T1 sequence (P28223 whole entry): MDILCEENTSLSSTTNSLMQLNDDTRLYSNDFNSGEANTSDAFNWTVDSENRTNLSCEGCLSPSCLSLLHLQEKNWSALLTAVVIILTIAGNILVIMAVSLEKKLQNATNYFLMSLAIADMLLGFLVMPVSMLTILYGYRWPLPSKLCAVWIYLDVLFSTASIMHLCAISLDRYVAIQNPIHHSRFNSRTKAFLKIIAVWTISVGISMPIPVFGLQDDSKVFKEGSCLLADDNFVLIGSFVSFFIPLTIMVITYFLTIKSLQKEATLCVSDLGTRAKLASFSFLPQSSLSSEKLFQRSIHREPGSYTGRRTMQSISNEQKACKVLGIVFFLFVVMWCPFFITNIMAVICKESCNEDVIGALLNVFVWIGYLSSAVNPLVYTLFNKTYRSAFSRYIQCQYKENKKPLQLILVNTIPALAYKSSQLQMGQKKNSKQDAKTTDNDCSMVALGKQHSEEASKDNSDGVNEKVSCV

Row | SMILES | Ki (5HT2A receptor [2]; [5]) | Ki (5HT2A receptor [2]; [8]) | also measured
1 | CN1CCC=C(c2c[nH]c3ccncc23)C1 [Example 136, 3-(1-methyl-1,2,5,6-tetrahydropyridin-3-yl)-1H-pyrrolo[3,2-c]pyridine] | 1810 nM | – | EC50 (5HT2A receptor [1]; [3]): 529 nM; Emax (5HT2A receptor [1]; [4]): 92.5%
2 | CCc1[nH]c2ccccc2c1C1=CCCN(C)C1 [Example 65, 2-ethyl-3-(1-methyl-1,2,5,6-tetrahydropyridin-3-yl)-1H-indole] | – | 221 nM | EC50 (5HT2A receptor [1]; [6]): 124 nM; Emax (5HT2A receptor [1]; [7]): 51.2%
3 | C1=C(c2c[nH]c3ccncc23)CNCC1 [Example 141, 3-(1,2,5,6-tetrahydropyridin-3-yl)-1H-pyrrolo[3,2-c]pyridine] | 739 nM | – | EC50 (5HT2A receptor [1]; [3]): 631 nM; Emax (5HT2A receptor [1]; [4]): 91.3%
4 | CCCN1CCC2CC2(c2n[nH]c3c(Cl)cccc23)C1 (centres unmarked) [Example 182, 7-chloro-3-(3-propyl-3-azabicyclo[4.1.0]heptan-1-yl)-1H-indazole] | 2470 nM | – | EC50 (5HT2A receptor [1]; [3]): 786 nM; Emax (5HT2A receptor [1]; [4]): 78.9%
5 | CN1CCOC(c2c[nH]c3c(Cl)cccc23)C1 (centres unmarked) [Example 246, 2-(7-chloro-1H-indol-3-yl)-4-methylmorpholine] | 2140 nM | – | EC50 (5HT2A receptor [1]; [3]): 620 nM; Emax (5HT2A receptor [1]; [4]): 69.6%
6 | Cc1[nH]c2ccccc2c1C1=CCCNC1 [Example 61, 2-methyl-3-(1,2,5,6-tetrahydropyridin-3-yl)-1H-indole] | – | 805 nM | EC50 (5HT2A receptor [1]; [6]): 363 nM; Emax (5HT2A receptor [1]; [7]): 67.4%
7 | Clc1cccc2c(C34CNCC3C4)n[nH]c12 (centres unmarked) [Example 180, 3-(3-azabicyclo[3.1.0]hexan-1-yl)-7-chloro-1H-indazole] | 227 nM | – | EC50 (5HT2A receptor [1]; [3]): 174 nM; Emax (5HT2A receptor [1]; [9]): 109%
8 | CCCc1cccc2c(C3=CCCN(C)C3)c[nH]c12 [Example 244, 3-(1-methyl-1,2,5,6-tetrahydropyridin-3-yl)-7-propyl-1H-indole] | 1550 nM | – | EC50 (5HT2A receptor [1]; [3]): 397 nM; Emax (5HT2A receptor [1]; [9]): 77.2%
9 | CN1CCC=C(c2n[nH]c3ccc(C#N)cc23)C1 [Example 103, 3-(1-methyl-1,2,5,6-tetrahydropyridin-3-yl)-1H-indazole-5-carbonitrile] | – | 1390 nM | EC50 (5HT2A receptor [1]; [6]): 612 nM; Emax (5HT2A receptor [1]; [7]): 64.9%
10 | Clc1cccc2c(C3=CCNCC3)n[nH]c12 [Example 241, 7-chloro-3-(1,2,3,6-tetrahydropyridin-4-yl)-1H-indazole] | 376 nM | – | EC50 (5HT2A receptor [1]; BRET2 Gαq dissociation, HEK293T, read-out: 5HTA Gq EC50): 65 nM; Emax (5HT2A receptor [1]; [4]): 63.4%
11 | COc1ccnc2[nH]cc(C3=CCCNC3)c12 [Example 10, 4-methoxy-3-(1,2,5,6-tetrahydropyridin-3-yl)-1H-pyrrolo[2,3-b]pyridine] | – | 312 nM | EC50 (5HT2A receptor [1]; [6]): 125 nM; Emax (5HT2A receptor [1]; [7]): 66.5%
12 | CCCN1CC=C(c2c[nH]c3c(Cl)cccc23)CC1 [Example 243, 7-chloro-3-(1-propyl-1,2,3,6-tetrahydropyridin-4-yl)-1H-indole] | 27.2 nM | – | EC50 (5HT2A receptor [1]; [3]): 104 nM; Emax (5HT2A receptor [1]; [9]): 41.9%
13 | CCCN1CCC=C(c2n[nH]c3c(Cl)cccc23)C1 [Example 123, 7-chloro-3-(1-propyl-1,2,5,6-tetrahydropyridin-3-yl)-1H-indazole] | – | 140 nM | EC50 (5HT2A receptor [1]; [6]): 142 nM; Emax (5HT2A receptor [1]; [7]): 66.9%
14 | Fc1cc(Cl)c2[nH]cc(C3CNCCO3)c2c1 (centres unmarked) [Example 249, 2-(7-chloro-5-fluoro-1H-indol-3-yl)morpholine] | 1020 nM | – | EC50 (5HT2A receptor [1]; [3]): 118 nM; Emax (5HT2A receptor [1]; [4]): 72.2%
15 | Fc1cc(Cl)c2[nH]nc(C34CNCC3C4(F)F)c2c1 (centres unmarked) [Example 203, 7-chloro-3-(6,6-difluoro-3-azabicyclo[3.1.0]hexan-1-yl)-5-fluoro-1H-indazole] | 1080 nM | – | EC50 (5HT2A receptor [1]; [3]): 700 nM; Emax (5HT2A receptor [1]; [4]): 39.5%
16 | Clc1cccc2c(C34CNCCC3C4)n[nH]c12 (centres unmarked) [Example 181, 3-(3-azabicyclo[4.1.0]heptan-1-yl)-7-chloro-1H-indazole] | 842 nM | – | EC50 (5HT2A receptor [1]; [3]): 120 nM; Emax (5HT2A receptor [1]; [9]): 61.3%
17 | CCc1ccc2[nH]cc(C3=CCCNC3)c2c1 [Example 25, 5-ethyl-3-(1,2,5,6-tetrahydropyridin-3-yl)-1H-indole] | – | 941 nM | EC50 (5HT2A receptor [1]; [6]): 592 nM; Emax (5HT2A receptor [1]; [7]): 73.3%
18 | CCCN(CCC)C1CCC=C(c2n[nH]c3c(Cl)cccc23)C1 (centres unmarked) [Example 172, 3-(7-chloro-1H-indazol-3-yl)-N,N-dipropylcyclohex-3-en-1-amine] | > 10000 nM | – | EC50 (5HT2A receptor [1]; [3]): 4020 nM; Emax (5HT2A receptor [1]; [4]): 66.4%
19 | Cc1[nH]c2ccccc2c1C1=CCCN(C)C1 [Example 63, 2-methyl-3-(1-methyl-1,2,5,6-tetrahydropyridin-3-yl)-1H-indole] | – | 823 nM | EC50 (5HT2A receptor [1]; [6]): 162 nM; Emax (5HT2A receptor [1]; [7]): 79%
20 | CC(C)(C)c1cccc2c(C3=CCCN(Cc4ccccc4)C3)c[nH]c12 [Example 72, 3-(1-benzyl-1,2,5,6-tetrahydropyridin-3-yl)-7-tert-butyl-1H-indole] | – | 734 nM | –
21 | O=C(O)c1cccc2c(C3=CCCN(Cc4ccccc4)C3)c[nH]c12 [Example 74, 3-(1-benzyl-1,2,5,6-tetrahydropyridin-3-yl)-1H-indole-7-carboxylic acid] | – | > 10000 nM | –
22 | CCCc1cccc2c(C3CCCN(C)C3)c[nH]c12 (centres unmarked) [Example 235, 3-(1-methylpiperidin-3-yl)-7-propyl-1H-indole] | 5550 nM | – | –
23 | CN1CC2C=C(c3n[nH]c4c(Cl)cccc34)C1CC2 (centres unmarked) [Example 224, 6-(7-chloro-1H-indazol-3-yl)-2-methyl-2-azabicyclo[2.2.2]oct-5-ene] | 8880 nM | – | –

Row | SMILES | Ki (5HT2A receptor [2]; [5]) | Ki (5HT2A receptor [2]; [8]) | also measured
24 | Clc1cccc2c(-c3cccnc3)n[nH]c12 [Example 214, 7-chloro-3-(pyridin-3-yl)-1H-indazole] | > 10000 nM | – | –
25 | CCCN1CCOC(c2c[nH]c3c(Cl)cccc23)C1 (centres unmarked) [Example 247, 2-(7-chloro-1H-indol-3-yl)-4-propylmorpholine] | 2560 nM | – | –
26 | Cc1cccc2c(C3=CCN(C)CCC3)n[nH]c12 [Example 205, 7-methyl-3-(1-methyl-2,5,6,7-tetrahydro-1H-azepin-4-yl)-1H-indazole] | 217 nM | – | –
27 | CCCN1CC=C(c2n[nH]c3c(Cl)cccc23)CC1 [Example 242, 7-chloro-3-(1-propyl-1,2,3,6-tetrahydropyridin-4-yl)-1H-indazole] | 330 nM | – | –
28 | c1cc(-c2cncnc2)c2[nH]nc(-c3cncnc3)c2c1 [Example 215, 3,7-di(pyrimidin-5-yl)-1H-indazole] | 3280 nM | – | –
29 | Cc1cccc2c(C34CNCCC3C4(F)F)n[nH]c12 (centres unmarked) [Example 189, 3-(7,7-difluoro-3-azabicyclo[4.1.0]heptan-1-yl)-7-methyl-1H-indazole] | 6920 nM | – | –
30 | COc1ccc2c(C3=CCCNC3)c[nH]c2c1 [Example 35, 6-methoxy-3-(1,2,5,6-tetrahydropyridin-3-yl)-1H-indole] | – | > 10000 nM | –
31 | Clc1cc(Cl)c2[nH]cc(C3CNC3)c2c1 [Example 266, 3-(azetidin-3-yl)-5,7-dichloro-1H-indole] | 244 nM | – | –
32 | C1=C(c2c[nH]c3nccc(-c4ccccc4)c23)CNCC1 [Example 12, 4-phenyl-3-(1,2,5,6-tetrahydropyridin-3-yl)-1H-pyrrolo[2,3-b]pyridine] | – | 191 nM | –
33 | Clc1cccc2c(C3=CCCN(C4CCC4)C3)n[nH]c12 [Example 174, 7-chloro-3-(1-cyclobutyl-1,2,5,6-tetrahydropyridin-3-yl)-1H-indazole] | 9760 nM | – | –
34 | CN1CCC=C(c2cn(C)c3ncccc23)C1 [Example 48, 1-methyl-3-(1-methyl-1,2,5,6-tetrahydropyridin-3-yl)-1H-pyrrolo[2,3-b]pyridine] | – | 423 nM | –
35 | Cc1cccc2c(C3CN4CCC3CC4)c[nH]c12 (centres unmarked) [Example 253, 3-(7-methyl-1H-indol-3-yl)quinuclidine] | > 10000 nM | – | –
36 | CC(C)(C)c1ccc2c(C3=CCCNC3)c[nH]c2c1 [Example 37, 6-(tert-butyl)-3-(1,2,5,6-tetrahydropyridin-3-yl)-1H-indole] | – | 9910 nM | –
37 | CN1CC=C(c2n[nH]c3c(Cl)cccc23)CC1 [Example 239, 7-chloro-3-(1-methyl-1,2,3,6-tetrahydropyridin-4-yl)-1H-indazole] | 603 nM | – | –
38 | FC1(F)CC(N2CCC=C(c3n[nH]c4c(Cl)cccc34)C2)C1 [Example 179, 7-chloro-3-(1-(3,3-difluorocyclobutyl)-1,2,5,6-tetrahydropyridin-3-yl)-1H-indazole] | 8620 nM | – | –
39 | CCCN1CCC=C(c2n[nH]c3c(C#N)cccc23)C1 [Example 176, 3-(1-propyl-1,2,5,6-tetrahydropyridin-3-yl)-1H-indazole-7-carbonitrile] | > 10000 nM | – | –
40 | CC(C)c1cccc2c(C3=CCCN(C)C3)c[nH]c12 [Example 54, 7-isopropyl-3-(1-methyl-1,2,5,6-tetrahydropyridin-3-yl)-1H-indole] | – | 510 nM | –
41 | Fc1cccc2c(C34CNCC3C4(F)F)n[nH]c12 (centres unmarked) [Example 201, 3-(6,6-difluoro-3-azabicyclo[3.1.0]hexan-1-yl)-7-fluoro-1H-indazole] | 4310 nM | – | –
42 | Cc1cccc2c(C34CNCCC3C4)n[nH]c12 (centres unmarked) [Example 193, 3-(3-azabicyclo[4.1.0]heptan-1-yl)-7-methyl-1H-indazole] | > 10000 nM | – | –
43 | Fc1cccc2c(C34CNCCC3C4(F)F)n[nH]c12 (centres unmarked) [Example 190, 3-(7,7-difluoro-3-azabicyclo[4.1.0]heptan-1-yl)-7-fluoro-1H-indazole] | 5370 nM | – | –
44 | Clc1cccc2c(-c3cnc[nH]3)n[nH]c12 [Example 217, 7-chloro-3-(1H-imidazol-5-yl)-1H-indazole] | > 10000 nM | – | –
45 | Cc1cnc2[nH]cc(C3=CCCNC3)c2c1 [Example 1, 5-methyl-3-(1,2,5,6-tetrahydropyridin-3-yl)-1H-pyrrolo[2,3-b]pyridine] | – | 1720 nM | –
